Results reported in article PMC2074590 (British Journal of Cancer, 1996).
Entries after “also recorded” stand apart in the source; their conditions may differ.

What was measured:
[1] = system: serum FSH, LH, prolactin, SHBG; assay: Serum FSH, LH, prolactin and SHBG before and during treatment; format: in vivo, human
Procedure: (§1) Bridsh Journal of Cancer (1996) 74, 300-308 ? […] The agent was administered as a monthly depot intramuscular injection. […] The study was approved by the ethics committees of each clinical centre. Patients were eligible for the study if they were post- menopausal and age less than 81 years, with histologically verified breast cancer. […] Patients were excluded if they had serious intercurrent disease, a WHO performance status of greater than 2, and a life expectancy of less than 3 months or had received previous cytotoxic chemotherapy for advanced breast cancer. […] Patients 5-19 received 250 mg month-1 i.m. from the outset. […] Tumour response to therapy was evaluated according to UICC criteria (Hayward et al., 1977). To qualify for the 'no change' category, tumour growth had to stabilise for more than 6 months (Howell et al., 1988; Robertson et al., 1989). Body weight was recorded at each monthly review in the majority of patients. […] The procedure was applied after solid base clean up of a diethyl ether/hexane extract of serum. The study limit of quantification was 0.68 ng ml-'. […] Gonadotrophins follicle-stimulating hormone and lutenising hormone (FSH and LH) and SHBG were measured by RIA in the Regional Radioimmunoassay Laboratory of the University Hospital of South Manchester. Prolactin was measured by immunoradiometric assay using reagents supplied by Netria. Total cholesterol levels were determined enzymatically using a commercially available reagent (Diamed, Switzerland). Triglyceride levels were determined by the glyceryl phosphate oxidase-peroxidase-antiperox- idase method using a commercially available kit (Boehringer Mannheim, Germany). High-density lipoprotein (HDL) cholesterol levels were measured after pretreatment of the serum samples with buffered magnesium phosphotungstate, which selectively precipitates low-density lipoprotein (LDL) cholesterol, very low-density lipoprotein (VLDL) cholesterol and chylomicrons, leaving HDL cholesterol in the super- natant. Serum levels of LDL cholesterol were calculated using the Friedewald equation (Friedewald et al., 1972). Endometrial assessment Endometrial thickness was measured in transverse section by transabdominal ultrasound using a Siemens Sonoline SL2 with a 3.5 MHz sector probe. Baseline and repeat scans at 3-6 monthly intervals were performed in five patients. […] Pharmacokinectic data were analysed using para- metric statistics. Data relating to body weight, serum gonadotrophin, SHBG and lipid levels were analysed using non-parametric statistics. The null hypothesis was rejected at a probability level of P<0.05. […] However, samples were not available between day 2 and day 8.

[2] = system: total cholesterol, LDL cholesterol, HDL cholesterol, triglyceride; assay: Serum lipid levels during treatment; format: in vivo, human; conditions: 12 patients
Procedure: Bridsh Journal of Cancer (1996) 74, 300-308 ? […] The agent was administered as a monthly depot intramuscular injection. […] The study was approved by the ethics committees of each clinical centre. Patients were eligible for the study if they were post- menopausal and age less than 81 years, with histologically verified breast cancer. […] Patients were excluded if they had serious intercurrent disease, a WHO performance status of greater than 2, and a life expectancy of less than 3 months or had received previous cytotoxic chemotherapy for advanced breast cancer. […] Patients 5-19 received 250 mg month-1 i.m. from the outset. […] Tumour response to therapy was evaluated according to UICC criteria (Hayward et al., 1977). […] Body weight was recorded at each monthly review in the majority of patients. […] The study limit of quantification was 0.68 ng ml-'. […] Gonadotrophins follicle-stimulating hormone and lutenising hormone (FSH and LH) and SHBG were measured by RIA in the Regional Radioimmunoassay Laboratory of the University Hospital of South Manchester. Prolactin was measured by immunoradiometric assay using reagents supplied by Netria. Total cholesterol levels were determined enzymatically using a commercially available reagent (Diamed, Switzerland). […] Serum levels of LDL cholesterol were calculated using the Friedewald equation (Friedewald et al., 1972). […]

[3] = Side-effects, local and systemic drug tolerability; format: in vivo, human
Procedure: as §1

breast cancer cells = system: breast cancer cells; set-up: method as in Wakeling and Bowler, 1987, 1988; conditions: ref Wakeling and Bowler, 1987, 1988; cited from earlier work
[4] = system: Ki67, ER, PgR, pS2 in primary breast cancer; conditions: short-acting propylene glycol-based formulation, daily i.m. for 1 week before surgery, ref DeFriend et al., 1994b, Nicholson et al.; cited from earlier work
ER = system: ER; set-up: method as in Wakeling et al., 1991; conditions: ref Wakeling et al., 1991; cited from earlier work
[5] = system: endometrial proliferation; set-up: method as in Dukes et al., 1993; conditions: primates, at serum concentrations similar to the present study; ref Dukes et al., 1993; cited from earlier work

Q: What does the source list for `C[C@]12CC[C@@H]3c4ccc(O)cc4C[C@@H](CCCCCCCCC[S+]([O-])CCCC(F)(F)C(F)(F)F)[C@H]3[C@@H]1CC[C@@H]2O` (stereo partly drawn) [ICI 182780, 7a-[9(4,4,5,5,pentafluoropentyl-sulphinyl)nonyl]oestra-1 ,3,5,(10)-triene-3,17,B-diol]?
A: Serum SHBG, median level ([1]; after 8 months of treatment, median pretreatment 100, P=NS): 55 nM; Serum LH, median post-treatment value ([1]; first 3 months of administration, median pre-treatment 26, P<0.005): 42 IU 1-1; Serum FSH, median post-treatment value ([1]; first 3 months of administration, median pre-treatment 26, P<0.05): 52 IU l-1; Change in serum SHBG ([1]; in vivo): no significant changes; also recorded: overall trend to decrease; Change in serum gonadotrophin levels after the first 3 months ([1]; in vivo): no further significant overall changes; Change in serum prolactin ([1]; throughout the treatment period): no significant changes; also recorded: did not change significantly; Change in serum lipids (total cholesterol, LDL cholesterol, HDL cholesterol, triglyceride) [2]: no significant changes; Serious drug-related adverse events ([3]; 19 patients): No serious drug-related adverse events; Vaginal dryness or altered libido ([3]; direct questioning at each monthly attendance): None of the patients reported; Frequency of side-effects ([3]; in vivo): infrequent; Full blood count and biochemical profile ([3]; in vivo): No clinically significant changes; Hot flushes and night sweats ([3]; in vivo): not induced; also recorded: not associated with any alteration; Injection-site events: erythema ([3]; in vivo): a third patient had local erythema at the injection site on one occasion; Local tolerance at the site of injection ([3]; long-acting formulation, 5 ml i.m.): well tolerated locally; Patients reporting minor systemic adverse events ([3]; of 19 patients): two; Injection-site events: bruising, tenderness ([3]; one occasion each): One patient developed bruising over the buttock and a second developed tenderness at the injection site; Potency as inhibitor of cell growth in vitro relative to tamoxifen (breast cancer cells): up to two orders of magnitude more potent than tamoxifen; Expression of ER, PgR and pS2 vs pretreatment samples [4]: reduced or absent expression; Tumour proliferation (Ki67 expression) vs pretreatment samples [4]: reduced proliferation; Potency and affinity for the ER relative to ICI 164384 (ER): greater potency and affinity for the ER; Effect on endometrial proliferation [5]: inhibited endometrial proliferation
